pIC50: −log10 of the molar value.
These compounds were tested against recombinant human LRRK2 (catalytic domain only [amino acids 970-2527], GST-tagged) (Homo sapiens (Human), UniProt Q5S007) (assay: LRRK2 Enzymatic Assay). Conditions: LRRKtide substrate, [32P]-ATP.
Sequence of recombinant human LRRK2 (catalytic domain only [amino acids 970-2527], GST-tagged) (Q5S007 970-2527): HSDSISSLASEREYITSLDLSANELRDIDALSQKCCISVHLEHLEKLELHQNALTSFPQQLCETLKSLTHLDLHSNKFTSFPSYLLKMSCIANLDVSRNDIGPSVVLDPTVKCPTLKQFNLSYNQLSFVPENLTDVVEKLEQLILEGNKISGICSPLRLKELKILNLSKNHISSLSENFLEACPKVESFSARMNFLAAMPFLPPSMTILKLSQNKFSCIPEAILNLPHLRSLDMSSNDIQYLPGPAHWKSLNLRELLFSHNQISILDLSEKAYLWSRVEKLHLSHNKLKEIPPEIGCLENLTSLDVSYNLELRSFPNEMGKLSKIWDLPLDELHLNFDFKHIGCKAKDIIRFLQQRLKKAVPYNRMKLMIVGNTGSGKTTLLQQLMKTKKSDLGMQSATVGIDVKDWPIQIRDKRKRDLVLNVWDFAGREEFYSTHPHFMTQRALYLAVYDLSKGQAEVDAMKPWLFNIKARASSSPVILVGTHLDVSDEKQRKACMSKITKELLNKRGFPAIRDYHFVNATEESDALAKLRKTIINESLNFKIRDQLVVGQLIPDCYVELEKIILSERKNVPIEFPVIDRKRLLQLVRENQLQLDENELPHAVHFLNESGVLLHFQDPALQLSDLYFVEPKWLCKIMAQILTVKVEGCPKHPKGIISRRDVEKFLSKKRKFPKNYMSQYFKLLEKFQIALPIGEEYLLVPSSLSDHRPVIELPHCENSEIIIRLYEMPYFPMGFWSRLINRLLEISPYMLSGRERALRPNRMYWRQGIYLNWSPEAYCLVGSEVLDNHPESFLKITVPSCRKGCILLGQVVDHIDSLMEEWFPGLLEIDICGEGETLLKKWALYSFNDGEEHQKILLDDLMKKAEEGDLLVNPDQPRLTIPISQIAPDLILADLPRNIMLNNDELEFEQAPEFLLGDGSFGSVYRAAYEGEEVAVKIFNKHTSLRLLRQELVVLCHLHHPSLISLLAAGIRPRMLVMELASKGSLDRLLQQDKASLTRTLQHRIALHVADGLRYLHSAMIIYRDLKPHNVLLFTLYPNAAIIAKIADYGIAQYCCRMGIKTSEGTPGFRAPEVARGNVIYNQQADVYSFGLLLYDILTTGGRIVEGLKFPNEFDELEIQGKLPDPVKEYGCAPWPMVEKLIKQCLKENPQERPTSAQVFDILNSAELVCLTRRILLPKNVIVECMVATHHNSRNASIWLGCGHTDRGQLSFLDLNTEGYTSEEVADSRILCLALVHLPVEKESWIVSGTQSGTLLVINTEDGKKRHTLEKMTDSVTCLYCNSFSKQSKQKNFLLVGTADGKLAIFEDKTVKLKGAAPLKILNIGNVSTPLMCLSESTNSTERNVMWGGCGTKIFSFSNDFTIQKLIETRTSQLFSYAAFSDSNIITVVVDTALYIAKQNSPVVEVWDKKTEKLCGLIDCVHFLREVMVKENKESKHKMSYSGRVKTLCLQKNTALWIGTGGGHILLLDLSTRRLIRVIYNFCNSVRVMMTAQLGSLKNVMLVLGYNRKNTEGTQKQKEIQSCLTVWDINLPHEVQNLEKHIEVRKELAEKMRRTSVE
Type: biochemical
Procedure, shortened: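 GST-tagged catalytic domain (aa 970-2527) at 30 nM with 20 μM LRRKtide in HEPES pH 7.5/MgCl2 buffer, 1% DMSO; compounds (10 μM to 0.5 nM) preincubated 20 min, then [32P]-ATP added for 2 h at room temperature. P81 phosphocellulose capture; activity as % of vehicle, IC50 by curve fit.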
In the case of `C[C@@H]1CN(c2ccc(Nc3nc(Cl)c(F)c(OC[C@H]4CC[C@H](O)CC4)n3)cc2)C[C@H](C)O1` [Example 247, (1R,4R)-4-(((6-chloro-2-((4-((2S,6R)-2,6-dimethylmorpholino)phenyl)amino)-5-fluoropyrimidin-4-yl)oxy)methyl)cyclohexan-1-ol], the pIC50 was less than 6.40.
Work on `CC(=O)N[C@H]1CC[C@H](COc2nc(Nc3ccc(N4CCOCC4)cc3)ncc2F)CC1` [Example 82, N-((1R,4R)-4-(((5-fluoro-2-((4-morpholinophenyl)amino)pyrimidin-4-yl)oxy)methyl)cyclo-hexyl)acetamide] yielded a pIC50 greater than 7.30.
`OCCn1cc(Nc2ncc(F)c(OC[C@H]3CC[C@H](O)CC3)n2)cn1` [Example 225, (1R,4R)-4-(((5-fluoro-2-((1-(2-hydroxyethyl)-1H-pyrazol-4-yl)amino)pyrimidin-4-yl)oxy)methyl)cyclohexan-1-ol] gave a pIC50 greater than 7.30.
`OCC1CCC(COc2ccnc(Nc3ccc(N4CCOCC4)cc3)n2)CC1` (centres unmarked) [Example 139, (4-(((2-((4-morpholinophenyl)amino)pyrimidin-4-yl)oxy)methyl)cyclohexyl)methanol22] showed a pIC50 of 6.70 to 7.30.
With `Cc1nn(C(C)(C)C#N)cc1Nc1ncc(Cl)c(OCC2(F)CCN(C)CC2)n1` [Example 61, 2-(4-((5-chloro-4-((4-fluoro-1-methylpiperidin-4-yl)methoxy)pyrimidin-2-yl)amino)-3-methyl-1H-pyrazol-1-yl)-2-methylpropanenitrile] the pIC50 was greater than 7.30.
For `O=C(N[C@H]1CC[C@H](COc2nc(Nc3ccc(N4C5CCC4COC5)cc3)ncc2F)CC1)C(F)(F)F` [Example 209, N-((1R,4R)-4-(((2-((4-(3-oxa-8-aza-bicyclo[3.2.1]octan-8-yl)phenyl)amino)-5-fluoro-pyrimidin-4-yl)oxy)methyl)cyclohexyl)-2,2,2-trifluoro-acetamide], the pIC50 was greater than 7.30.
For `CC(=O)NC1CCC(C)(COc2ccnc(Nc3ccc(N4CCOCC4)cc3)n2)CC1` (centres unmarked) [Example 91, N-(4-methyl-4-(((2-((4-morpholinophenyl)amino)pyrimidin-4-yl)oxy)methyl)cyclo-hexyl)acetamide], the pIC50 was less than 6.40.
Work on `N[C@H]1CC[C@@H](COc2ccnc(Nc3ccc(N4CCOCC4)cc3)n2)CC1` [Example 1, 4-(((1S,4S)-4-aminocyclohexyl)methoxy)-N-(4-morpholinophenyl) pyrimidin-2-amine] yielded a pIC50 greater than 7.30.
`CC(=O)N[C@H]1CC[C@H](COc2nc(Nc3cnn(CCO)c3Cl)ncc2F)CC1` [Example 204, N-((1R,4R)-4-(((2-((5-chloro-1-(2-hydroxyethyl)-1H-pyrazol-4-yl)amino)-5-fluoropyrimidin-4-yl)oxy)methyl)cyclo-hexyl)acetamide] gave a pIC50 greater than 7.30.
With `CC(=O)N[C@H]1CC[C@H](COc2nc(Nc3cnn(C(C)(C)C#N)c3)ncc2F)CC1` [Example 186, N-((1R,4R)-4-(((2-((1-(2-cyanopropan-2-yl)-1H-pyrazol-4-yl)amino)-5-fluoropyrimidin-4-yl)oxy)methyl)cyclo-hexyl)acetamide] the pIC50 was greater than 7.30.
`CC(C)n1cc(Nc2ncc(F)c(OC[C@H]3CC[C@H](NC(=O)C(F)(F)F)CC3)n2)cn1` [Example 210, 2,2,2-trifluoro-N-((1R,4R)-4-(((5-fluoro-2-((1-isopropyl-1H-pyrazol-4-yl)amino)pyrimidin-4-yl)oxy)methyl)cyclohexyl) acetamide] gave a pIC50 greater than 7.30.
In the case of `CN[C@H]1CC[C@H](COc2nc(Nc3cn(C(C)(C)C#N)nc3C)ncc2F)CC1` [Example 43, 2-(4-((5-fluoro-4-(((1R,4R)-4-(methylamino)cyclo-hexyl)methoxy)py-rimidin-2-yl)amino)-3-methyl-1H-pyrazol-1-yl)-2-methylpropanenitrile], the pIC50 was greater than 7.30.
With `C[C@@H]1CN(c2ccc(Nc3ncc(F)c(OCC4CCC(C)(O)CC4)n3)cc2)C[C@H](C)O1` (stereo partly drawn) [Example 252, 4-(((2-((4-((2S,6R)-2,6-dimethylmorpholino)phenyl)amino)-5-fluoropyrimidin-4-yl)oxy)methyl)-1-methylcyclohexan-1-ol] the pIC50 was greater than 7.30.
In the case of `COc1cnc(Nc2ccc(N3CCOCC3)cc2)nc1OC[C@H]1CC[C@H](N(C)C)CC1` [Example 55, 4-(((1R,4R)-4-(dimethylamino)cyclo-hexyl)methoxy)-5-methoxy-N-(4-morpholinophenyl)py-rimidin-2-amine], the pIC50 was greater than 7.30.
Compound `O[C@H]1CC[C@H](COc2nc(Nc3cnn(C4CCOCC4)c3C3CC3)ncc2F)CC1` [Example 236, (1R,4R)-4-(((2-((5-cyclopropyl-1-(tetrahydro-2H-pyran-4-yl)-1H-pyrazol-4-yl)amino)-5-fluoropyrimidin-4-yl)oxy)methyl)cyclohexan-1-ol] has a pIC50 greater than 7.30.
`O[C@H]1CC[C@H](COc2nc(Nc3cnn(C4CCOCC4)c3)ncc2F)CC1` [Example 228, (1R,4R)-4-(((5-fluoro-2-((1-(tetrahydro-2H-pyran-4-yl)-1H-pyrazol-4-yl)amino)pyrimidin-4-yl)oxy)methyl)cyclohexan-1-ol] was tested, and the pIC50 was 6.40 to 6.70.
Compound `Cc1nn(C(C)(C)C#N)cc1Nc1ncc(F)c(OC[C@H]2CC[C@H](OC(F)F)CC2)n1` [Example 286, 2-(4-((4-(((1R,4R)-4-(difluoromethoxy)cyclohexyl)methoxy)-5-fluoropyrimidin-2-yl)amino)-3-methyl-1H-pyrazol-1-yl)-2-methylpropanenitrile] has a pIC50 of 6.70 to 7.30.
`Cc1nn(C(C)(C)C#N)cc1Nc1ncc(F)c(OCC2CCN(C)CC2)n1` [Example 67, 2-(4-((5-fluoro-4-((1-methylpiperidin-4-yl)methoxy)pyrimidin-2-yl)amino)-3-methyl-1H-pyrazol-1-yl)-2-methylpropanenitrile] was tested, and the pIC50 was less than 6.40.
`CC(=O)N1CCC(COc2nc(Nc3cn(C(C)(C)C#N)nc3C)ncc2F)C(F)C1` (single isomer, unassigned) [Example 177, 2-(4-((4-((1-acetyl-3-fluoropiperidin-4-yl)methoxy)-5-fluoropyrimidin-2-yl)amino)-3-methyl-1H-pyrazol-1-yl)-2-methylpropanenitrile] showed a pIC50 of less than 6.40.
`CC(=O)NC12CCC(COc3ccnc(Nc4cn(C(C)(C)C#N)nc4C)n3)(CC1)CC2` [Example 78, N-(4-(((2-((1-(2-cyanopropan-2-yl)-3-methyl-1H-pyrazol-4-yl)amino)pyrimidin-4-yl)oxy)methyl)bicyclo [2.2.2]octan-1-yl)acetamide] was tested, and the pIC50 was 6.40 to 6.70.
With `Cc1nn(C(C)(C)C#N)cc1Nc1ncc(F)c(OCC2CCC(C#N)CC2)n1` (racemic) [Example 274, 4-(((2-((1-(2-cyanopropan-2-yl)-3-methyl-1H-pyrazol-4-yl)amino)-5-fluoropyrimidin-4-yl)oxy)methyl)cyclohexane-1-carbonitrile] the pIC50 was greater than 7.30.
`CC(=O)N[C@H]1CC[C@H](COc2nc(Nc3cn(C(C)(C)C#N)nc3C)ncc2C)CC1` [Example 87, N-((1R,4R)-4-(((2-((1-(2-cyanopropan-2-yl)-3-methyl-1H-pyrazol-4-yl)amino)-5-methylpyrimidin-4-yl)oxy)methyl)cyclo-hexyl)acetamide] was tested, and the pIC50 was greater than 7.30.
`CC(=O)N[C@H]1CC[C@H](COc2ccnc(Nc3cn(C(C)(C)C#N)nc3C)n2)CC1` [Example 74, N-((1R,4R)-4-(((2-((1-(2-cyanopropan-2-yl)-3-methyl-1H-pyrazol-4-yl)amino)pyrimidin-4-yl)oxy)methyl)cyclo-hexyl)acetamide] gave a pIC50 of 6.70 to 7.30.

— patent publication US11578061B2, “Inhibitors of LRRK2 kinase” (Halia Therapeutics, Inc., priority 2021, dated 2023)
